# Data published in the NIST ThermoML archive (doi:10.1016/j.jct.2019.03.012).
# Numbers after ± are expanded uncertainties.
# Legend:
# [1] = DSC
# [2] = Molar enthalpy of transition or fusion; conditions: Crystal 1; DSC
compound,measurement,setting,value
CC[NH3+].O=[N+]([O-])[O-] [ethylammonium nitrate],Triple point temperature,[1]; Crystal 1,285.15 ± 6 K
same,Glass transition temperature,[1]; Glass,-41.00 ± 6 °C
same,Molar enthalpy of transition or fusion,[2],3.15 ± 0.155 kcal/mol
